Reference: ChEMBL document CHEMBL4304792, “Cinnamonitrile Adjuvants Restore Susceptibility to β-Lactams against Methicillin-Resistant Staphylococcus aureus” (ACS Med Chem Lett, 2019)
Values after ≈ are worked out from the molar mass of the structure shown.

Tests used:
Staphylococcus aureus [1] = experiment: Antibacterial activity against Staphylococcus aureus NRS70 measured after 16 to 20 hrs in absence of 2% NaCl by microdilution broth method
Staphylococcus aureus [2] = experiment: Potentiation of oxacillin induced antibacterial activity against Staphylococcus aureus NRS70 assessed as oxacillin MIC at 20 uM measured after 16 to 20 hrs in presence of 2% NaCl by microdilution broth method (reference value: 64 mg/L); assay type: functional

SMILES | MIC (Staphylococcus aureus [1]) [µg/mL] | MIC (Staphylococcus aureus [2]) [µg/mL]
N#C/C(=C\c1cccc(Oc2ccc(Cl)c(Cl)c2)c1)c1ccncc1 | ≥ 64 | 64
N#CC(C#N)=Cc1cccc(Oc2cccc(C(F)(F)F)c2)c1 | 32 (≈ 102 µM) | 64
N#CC(C#N)=Cc1cccc(Cc2ccc(Cl)c(F)c2)c1 | ≥ 64 | 64
N#CC(C#N)Cc1cccc(Oc2ccc(Cl)c(Cl)c2)c1 | 32 (≈ 101 µM) | 64
N#C/C(=C\c1cccc(Oc2ccc(Cl)c(Cl)c2)c1)c1cccs1 | ≥ 64 | 64
N#CC(C#N)=Cc1cccc(Sc2ccc(Cl)c(Cl)c2)c1 | ≥ 64 | 64
N#CC(C#N)=Cc1cccc(Oc2cc(Cl)cc(Cl)c2)c1 | 16 (≈ 50.8 µM) | 64
COc1ccc(OC)c(Cc2cccc(C=C(C#N)C#N)c2)c1 | ≥ 64 | 64
N#C/C(=C\c1cccc(Oc2ccc(Cl)c(Cl)c2)c1)c1ccccn1 | ≥ 64 | 64
N#CC(C#N)=Cc1ccc(Oc2ccc(Cl)cc2)cc1 | 32 (≈ 114 µM) | 64
N#CC(C#N)=Cc1cccc(Cc2cc(F)c(F)cc2F)c1 | ≥ 64 | 64
Cc1ccc(C(=O)/C(C#N)=C/c2cccc(Oc3ccc(Cl)c(Cl)c3)c2)cc1 | ≥ 64 | 64
N#CC(C#N)=Cc1cccc(Oc2ncc(Cl)c(Cl)n2)c1 | ≥ 64 | 64
Cc1ccc(Oc2cccc(C=C(C#N)C#N)c2)cc1 | ≥ 64 | 64
N#CC(C#N)=Cc1cccc(Oc2ccc(Cl)cc2)c1 | 32 (≈ 114 µM) | 64
N#CC(C#N)=Cc1cccc(Oc2ccc(Cl)c(Cl)c2)c1 | 32 (≈ 102 µM) | 64
COc1ccc(Oc2cccc(C=C(C#N)C#N)c2)cc1 | ≥ 64 | 64
N#CC(C#N)=Cc1cccc(Oc2ccc(F)cc2)c1 | ≥ 64 | 64
N#CC(C#N)=Cc1cccc(Oc2ccccc2)c1 | 32 (≈ 130 µM) | 64
Cc1ccc(S(=O)(=O)Nc2cccc(C=C(C#N)C#N)c2)cc1 | ≥ 64 | 64
N#CC(C#N)=Cc1cccc(Cc2cccc(Cl)c2)c1 | ≥ 64 | 64
N#CC(C#N)=Cc1cccc(Oc2ccc(Cl)nn2)c1 | ≥ 64 | 64
N#CC(C#N)=Cc1cccc(Cc2ccc(F)c(Cl)c2)c1 | ≥ 64 | 64
N#C/C(=C\c1cccc(Oc2ccc(Cl)c(Cl)c2)c1)c1nc2ccccc2s1 | ≥ 64 | 64

Continued, values first:

MIC (Staphylococcus aureus [1]) [µg/mL] | MIC (Staphylococcus aureus [2]) [µg/mL] | SMILES
≥ 64 | 4 | COc1ccc(Cc2ccc(Cl)c(Cl)c2)cc1C=C(C#N)C#N
≥ 64 | 64 | CS(=O)(=O)/C(C#N)=C/c1cc(Cc2ccc(F)c(C(F)(F)F)c2)ccc1F
≥ 64 | 64 | CS(=O)(=O)/C(C#N)=C/c1cc(-c2ccnc3ccccc23)ccc1F
8 (≈ 24.2 µM) | 2 | N#CC(C#N)=Cc1cccc(Cc2ccc(Cl)c(Cl)c2)c1F
≥ 64 | 64 | CS(=O)(=O)/C(C#N)=C/c1cc(-c2cnc3ccccc3n2)ccc1F
≥ 64 | 64 | N#C/C(=C\c1cccc(Oc2ccc(Cl)c(Cl)c2)c1)C(=O)O
≥ 64 | 64 | CS(=O)(=O)/C(C#N)=C/c1cc(Cc2ccc(OC(F)(F)F)cc2)ccc1F
≥ 64 | 64 | N#CC(C#N)=Cc1cccc(Cc2ccc(Cl)c(Cl)c2)c1
≥ 64 | 64 | COc1ccc(Cc2ccc(OC(F)(F)F)c(/C=C(\C#N)S(C)(=O)=O)c2)cc1OC
8 (≈ 24 µM) | 64 | N#C/C(=C\c1cccc(Oc2ccc(Cl)c(Cl)c2)c1)C(N)=O
≥ 64 | 64 | COc1ccc(C=C(C#N)C#N)cc1Oc1ccc(Cl)c(Cl)c1
32 (≈ 73.9 µM) | 16 | N#C/C(=C\c1cc(-c2ccc(Cl)c(Cl)c2)ccc1F)S(=O)(=O)c1ccccn1
≥ 64 | 64 | CS(=O)(=O)/C(C#N)=C/c1cc(Cc2ccc(SC(F)(F)F)cc2)ccc1F
8 (≈ 20.8 µM) | 2 | CS(=O)(=O)/C(C#N)=C/c1cccc(Cc2ccc(Cl)c(Cl)c2)c1F
32 (≈ 79.7 µM) | 64 | CS(=O)(=O)/C(C#N)=C/c1cc(Cc2ccc(C(F)(F)F)c(F)c2)ccc1F
16 (≈ 43.4 µM) | 64 | CS(=O)(=O)/C(C#N)=C/c1cccc(Oc2ccc(Cl)c(Cl)c2)c1
32 (≈ 80.7 µM) | 8 | COc1c(/C=C(\C#N)S(C)(=O)=O)cccc1Cc1ccc(Cl)c(Cl)c1
32 (≈ 83.5 µM) | 64 | CS(=O)(=O)/C(C#N)=C/c1cc(Cc2ccc(C(F)(F)F)cc2)ccc1F

MIC (Staphylococcus aureus [1]) [µg/mL] | MIC (Staphylococcus aureus [2]) [µg/mL] | SMILES
≥ 64 | 1 | N#C/C(=C\c1cc(Cc2ccc(Cl)c(Cl)c2)ccc1F)C(=O)C1CC1
16 (≈ 37.5 µM) | 64 | COc1ccc(Cc2ccc(Cl)c(Cl)c2)c(OC)c1/C=C(\C#N)S(C)(=O)=O
≥ 64 | 64 | CS(=O)(=O)/C(C#N)=C/c1cc(Cc2cccc(C(F)(F)F)c2)ccc1F
≥ 64 | 64 | CS(=O)(=O)/C(C#N)=C/c1cc(Cc2cccc(OC(F)(F)F)c2)ccc1F
32 (≈ 90.6 µM) | 16 | CS(=O)(=O)/C(C#N)=C/c1cccc(-c2ccc(Cl)c(Cl)c2)n1
≥ 64 | 64 | CS(=O)(=O)/C(C#N)=C/c1cc(-c2ccc3ccccc3n2)ccc1F
≥ 64 | 64 | CS(=O)(=O)/C(C#N)=C/c1cc(Cc2ccc(F)c(F)c2)ccc1F
32 (≈ 75.2 µM) | 64 | CS(=O)(=O)/C(C#N)=C/c1cc(Cc2ccc3c(c2)OCO3)ccc1OC(F)(F)F
≥ 64 | 64 | COc1ccc(Cc2ccc(F)c(/C=C(\C#N)S(C)(=O)=O)c2)cc1C(F)(F)F
≥ 64 | 64 | CC(C)NC(=O)c1ccc(Cc2ccc(F)c(/C=C(\C#N)S(C)(=O)=O)c2)cc1
16 (≈ 44 µM) | 64 | N#CC(C#N)=Cc1cccc(S(=O)(=O)c2ccc(Cl)c(Cl)c2)c1
8 (≈ 24.2 µM) | 4 | N#CC(C#N)=Cc1cc(Cc2ccc(Cl)c(Cl)c2)ccc1F
≥ 64 | 16 | CCOc1ccc(Cc2ccc(Cl)c(Cl)c2)cc1/C=C(\C#N)S(C)(=O)=O
32 (≈ 80.7 µM) | 4 | COc1ccc(Cc2ccc(Cl)c(Cl)c2)cc1/C=C(\C#N)S(C)(=O)=O
≥ 64 | 16 | CS(=O)(=O)/C(C#N)=C/c1cc(Cc2ccc(Cl)c(Cl)c2)ccc1N1CCOCC1
≥ 64 | 16 | N#CC(C#N)=Cc1cccc(C(=O)Nc2ccc(Cl)c(Cl)c2)c1
≥ 64 | 64 | CC(=C(C#N)C#N)c1cccc(Cc2ccc(Cl)c(Cl)c2)c1
